Experimental data taken from patent US20110212053A1, “PHOSPHATIDYLINOSITOL 3 KINASE INHIBITORS” (priority 2008, published 2011).
“And” between values parts separate entries of the source, which are not always exact repeats. Equal values may be shown once.

Tests used:
Type in all cases: biochemical
PI3Kδ = target: T1, PI3Kδ (Homo sapiens, UniProt O00329); assay: KinaseGLO luminescent PI3-kinase assay, PI3Kδ
T1 construct: purchased Invitrogen or Millipore
Protocol: (§1) Compound Preparation: KinaseGLO assay: 30× stocks of inhibitors were prepared in DMSO. A 10 mM master stock was prepared and all other stocks were generated by serial dilution of this master stock in DMSO. The final concentration of DMSO in the kinase reaction was 3.3% (v/v).
(§2) PI3-Kinase Assay: The KinaseGLO® Luminescent Kinase Assay (Promega) is a luciferin-luciferase based luminescent assay that utilizes a proprietary thermostable luciferase to quantify the ATP remaining in a solution after a kinase reaction. The luminescent signal generated using KinaseGLO® directly correlates with ATP concentration, and therefore inversely correlates with kinase activity.
(§3) PI3K enzyme sample was thawed and diluted to 100 ng/μL in enzyme dilution buffer (50 mM HEPES, pH7.5, 3.0 mM MgCl2, 1.0 mM EGTA) and stored on ice. PI3Kα enzyme was diluted to a final concentration of 1 ng/μL in reaction buffer (for PI3Kα; 50 mM HEPES, pH7.5, 100 mM NaCl, 2.0 mM DTT, 3.0 mM MgCl2, 1.0 mM EGTA, 10 μM ATP) and gently mixed. 25 μL of this kinase reaction was then aliquoted into test wells in a Microfluor2 white 96-well plate (Thermo Scientific). As a preincubation step, 1 μl of 30× compound dilutions was added to the appropriate test wells to generate a ten point dose-response ranging from 0.0 μM-10 μM inhibitor. […] Luminescent signal was detected using a SpectraMax M5 (Molecular Devices). Maximal luminescence (no PI3K activity/maximal PI3K inhibition) was determined from reaction buffer plus SC-PI substrate only controls. The minimal signal (maximal PI3K activity) was determined by the 0.0 μM compound (DMSO only) control. IC50 values were calculated via non-linear regression using GraphPad Prism data analysis software.
(§4) Compounds were assayed against the Class I PI3Kα, PI3Kβ, PI3Kγ, PI3Kδ, PI3Kα(H1047R) and PI3Kα(E545K) in the KinaseGLO assay as described in Example 2, and against the Class IV PI3K mTOR in the radiometric assay. IC50 values (μM) were determined using 8-10 point half-log dose dilutions and calculated via nonlinear regression analysis using Graphpad Prism data analysis software.

PI3Kα(E545K) = target: T2, PI3Kα(E545K) (Homo sapiens, UniProt P42336, E545K); assay: KinaseGLO luminescent PI3-kinase assay, mutant PI3Kα(E545K)
T2 construct: purchased Invitrogen or Millipore
Protocol: as §1, §2, §3, §4

PI3Kα(H1047R) = target: T3, PI3Kα(H1047R) (Homo sapiens, UniProt P42336, H1047R); assay: KinaseGLO luminescent PI3-kinase assay, mutant PI3Kα(H1047R)
T3 construct: purchased Invitrogen or Millipore
Protocol: as §1, §2, §3, §4

MELK = target: T4, MELK (Homo sapiens, UniProt Q14680); assay: MELK kinase assay (KinaseGLO)
T4 construct: purchased Invitrogen or Millipore
Protocol: as §1
MELK kinase assay: The ability of compounds to inhibit MELK was also determined using the KinaseGLO assay. Briefly, MELK enzymes was thawed and diluted to a final concentration of 2.64 ng/μL in reaction buffer (50 mM HEPES, pH7.5, 100 mM NaCl, 2.0 mM DTT, 3.0 mM MgCl2, 1.0 mM EGTA, 10 μM ATP). 19 μl of this kinase reaction mixture was aliquoted into test wells (50 ng MELK/well) in a Microfluor2 white 96-well plate (Thermo Scientific). As a preincubation step, 1 μl of 30× compound dilutions was added to the appropriate test wells to generate a ten point dose-response ranging from 0.0 μM-10 μM inhibitor, and incubated for 15 minutes at 4° C. The reaction was started by addition of 10 μL of 150 μM ZIPtide peptide substrate resuspended in reaction buffer (50 μM final concentration of ZIPtide). Reactions were incubated at room temperature for 2 hours prior to addition of 30 μL of KinaseGLO reagent and development as described. Maximal luminescence (no MELK activity/maximal MELK inhibition) was determined from reaction buffer plus peptide substrate only controls. The minimal signal (maximal MELK activity) was determined by the 0.0 μM compound (DMSO only) control. IC50 values were calculated via non-linear regression using GraphPad Prism data analysis software. […]
Compounds of the invention were assayed against the select kinases using the KinaseGLO assay (MELK) or the radiometric assay (PIM, TRKC, PDGFRα(D842V), MNK1 and mTOR). IC50 values were determined using 8-10 point half-log dose dilutions and calculated via nonlinear regression analysis using Graphpad Prism data analysis software.

T1 sequence (O00329 whole entry): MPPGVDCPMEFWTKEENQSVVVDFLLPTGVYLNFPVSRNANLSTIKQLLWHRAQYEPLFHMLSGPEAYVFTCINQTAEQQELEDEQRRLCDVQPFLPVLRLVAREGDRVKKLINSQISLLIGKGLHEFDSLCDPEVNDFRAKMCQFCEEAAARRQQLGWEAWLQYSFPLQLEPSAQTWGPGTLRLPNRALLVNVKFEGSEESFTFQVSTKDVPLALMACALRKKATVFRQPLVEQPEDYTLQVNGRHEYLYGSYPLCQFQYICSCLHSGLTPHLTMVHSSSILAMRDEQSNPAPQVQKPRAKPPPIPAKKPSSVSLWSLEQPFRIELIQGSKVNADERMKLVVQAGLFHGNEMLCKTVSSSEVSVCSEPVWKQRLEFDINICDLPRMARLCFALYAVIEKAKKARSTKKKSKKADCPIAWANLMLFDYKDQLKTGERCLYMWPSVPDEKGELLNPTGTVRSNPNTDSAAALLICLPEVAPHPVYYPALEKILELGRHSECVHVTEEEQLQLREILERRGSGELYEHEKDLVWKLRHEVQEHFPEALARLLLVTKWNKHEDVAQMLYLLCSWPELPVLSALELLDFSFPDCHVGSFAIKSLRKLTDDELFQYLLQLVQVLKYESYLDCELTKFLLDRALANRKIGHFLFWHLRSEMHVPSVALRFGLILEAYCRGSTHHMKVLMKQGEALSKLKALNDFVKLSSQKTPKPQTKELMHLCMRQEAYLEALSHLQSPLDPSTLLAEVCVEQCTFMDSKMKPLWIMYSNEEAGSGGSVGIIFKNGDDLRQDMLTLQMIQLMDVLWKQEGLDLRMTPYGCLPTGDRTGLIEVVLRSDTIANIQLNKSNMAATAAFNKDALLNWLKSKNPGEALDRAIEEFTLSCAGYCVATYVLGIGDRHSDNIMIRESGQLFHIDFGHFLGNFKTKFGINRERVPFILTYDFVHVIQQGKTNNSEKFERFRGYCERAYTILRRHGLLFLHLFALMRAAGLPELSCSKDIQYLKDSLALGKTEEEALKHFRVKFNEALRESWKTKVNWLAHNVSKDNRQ
T1 sequence (P27986 whole entry partner): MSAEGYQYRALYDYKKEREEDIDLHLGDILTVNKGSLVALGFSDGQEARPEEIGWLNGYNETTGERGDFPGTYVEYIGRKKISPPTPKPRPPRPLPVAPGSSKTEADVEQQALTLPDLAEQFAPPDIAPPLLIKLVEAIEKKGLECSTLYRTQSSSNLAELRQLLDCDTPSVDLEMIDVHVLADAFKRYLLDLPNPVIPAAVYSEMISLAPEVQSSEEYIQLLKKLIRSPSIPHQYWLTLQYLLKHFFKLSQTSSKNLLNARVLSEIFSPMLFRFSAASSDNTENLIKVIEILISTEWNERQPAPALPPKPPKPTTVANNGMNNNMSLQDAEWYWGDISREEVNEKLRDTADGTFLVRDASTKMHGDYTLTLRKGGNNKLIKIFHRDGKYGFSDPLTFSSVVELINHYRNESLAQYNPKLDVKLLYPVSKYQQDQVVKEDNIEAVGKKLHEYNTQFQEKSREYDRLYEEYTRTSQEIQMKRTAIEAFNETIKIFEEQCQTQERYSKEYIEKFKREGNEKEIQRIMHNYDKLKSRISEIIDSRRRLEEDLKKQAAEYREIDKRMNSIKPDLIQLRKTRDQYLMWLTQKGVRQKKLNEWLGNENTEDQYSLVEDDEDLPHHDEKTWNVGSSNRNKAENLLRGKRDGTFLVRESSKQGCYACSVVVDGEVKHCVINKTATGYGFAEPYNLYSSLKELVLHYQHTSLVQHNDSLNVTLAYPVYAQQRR
T4 sequence (Q14680 whole entry): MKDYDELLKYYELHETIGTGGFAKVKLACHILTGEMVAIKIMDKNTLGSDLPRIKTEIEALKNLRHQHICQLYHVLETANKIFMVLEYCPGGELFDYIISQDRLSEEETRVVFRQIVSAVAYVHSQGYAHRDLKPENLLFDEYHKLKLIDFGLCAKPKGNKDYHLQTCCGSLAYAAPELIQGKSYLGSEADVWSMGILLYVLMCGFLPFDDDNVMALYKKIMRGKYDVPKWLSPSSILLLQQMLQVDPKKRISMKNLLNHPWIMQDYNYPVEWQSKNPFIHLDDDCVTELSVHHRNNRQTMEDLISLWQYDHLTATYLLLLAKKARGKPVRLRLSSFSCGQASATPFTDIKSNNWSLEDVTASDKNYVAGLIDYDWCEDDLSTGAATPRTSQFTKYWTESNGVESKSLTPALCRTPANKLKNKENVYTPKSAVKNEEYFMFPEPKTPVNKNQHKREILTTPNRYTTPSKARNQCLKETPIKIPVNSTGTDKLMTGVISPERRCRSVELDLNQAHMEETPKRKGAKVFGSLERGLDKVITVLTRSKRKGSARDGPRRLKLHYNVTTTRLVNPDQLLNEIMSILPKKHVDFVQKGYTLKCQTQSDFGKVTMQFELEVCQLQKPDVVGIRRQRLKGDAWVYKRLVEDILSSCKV
T3 sequence (P42336 whole entry H1047R): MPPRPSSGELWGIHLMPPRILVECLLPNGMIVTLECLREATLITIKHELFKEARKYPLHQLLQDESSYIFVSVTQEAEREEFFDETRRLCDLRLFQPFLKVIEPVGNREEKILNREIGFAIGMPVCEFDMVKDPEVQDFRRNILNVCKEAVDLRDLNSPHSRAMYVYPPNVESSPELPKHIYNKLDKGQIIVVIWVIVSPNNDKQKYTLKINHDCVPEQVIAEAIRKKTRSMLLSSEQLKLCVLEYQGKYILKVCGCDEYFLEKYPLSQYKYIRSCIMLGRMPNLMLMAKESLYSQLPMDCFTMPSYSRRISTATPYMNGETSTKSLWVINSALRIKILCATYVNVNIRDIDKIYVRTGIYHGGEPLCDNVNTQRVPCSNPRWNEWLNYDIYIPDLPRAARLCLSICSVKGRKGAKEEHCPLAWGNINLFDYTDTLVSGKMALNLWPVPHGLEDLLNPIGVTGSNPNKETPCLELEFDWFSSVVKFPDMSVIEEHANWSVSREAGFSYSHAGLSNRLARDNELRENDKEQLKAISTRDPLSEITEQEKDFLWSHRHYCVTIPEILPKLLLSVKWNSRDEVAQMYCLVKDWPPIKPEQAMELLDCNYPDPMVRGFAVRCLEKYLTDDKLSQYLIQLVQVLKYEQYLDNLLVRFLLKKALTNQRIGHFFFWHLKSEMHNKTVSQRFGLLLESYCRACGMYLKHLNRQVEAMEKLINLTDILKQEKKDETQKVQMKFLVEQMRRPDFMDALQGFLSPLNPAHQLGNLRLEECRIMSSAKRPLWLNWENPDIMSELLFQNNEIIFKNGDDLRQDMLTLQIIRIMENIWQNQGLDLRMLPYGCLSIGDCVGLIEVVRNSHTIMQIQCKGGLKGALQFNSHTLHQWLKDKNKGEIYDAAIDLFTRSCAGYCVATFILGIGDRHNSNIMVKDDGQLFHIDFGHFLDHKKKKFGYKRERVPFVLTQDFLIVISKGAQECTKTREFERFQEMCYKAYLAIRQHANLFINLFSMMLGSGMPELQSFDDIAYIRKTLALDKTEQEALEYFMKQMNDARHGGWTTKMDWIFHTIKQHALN
T3 sequence (P27986 whole entry partner): as the sequence (P27986 whole entry partner) above
T2 sequence (P42336 whole entry E545K): as the sequence (P42336 whole entry H1047R) above, with E545K, R1047H counted along it
T2 sequence (P27986 whole entry partner): as the sequence (P27986 whole entry partner) above

IC50 (PI3Kδ)	IC50 (PI3Kα(E545K)) [nM]	IC50 (PI3Kα(H1047R)) [nM]	IC50 (MELK) [nM]	Structure (SMILES)
10 to 35 nM	15 to 55	> 25	> 30	CC(C)(C#N)c1ccc(-c2n[nH]c3cnc4ccc(-c5ccc6ncccc6c5)cc4c23)cc1 [Compound 1110, 2-methyl-2-(4-(8-(quinolin-6-yl)-3H-pyrazolo[3,4-c]quinolin-1-yl)phenyl)propanenitrile]
< 15 nM and 10 to 35 nM	15 to 55	> 25	> 30	CC(C)(C#N)c1ccc(-c2n[nH]c3cnc4ccc(-c5cnc6ccccc6c5)cc4c23)cc1 [Compound 1078, 2-methyl-2-(4-(8-(quinolin-3-yl)-3H-pyrazolo[3,4-c]quinolin-1-yl)phenyl)propanenitrile]
10 to 35 nM	< 10	5 to 25	< 12	CC(C)(C#N)c1ccc(-c2n[nH]c3cnc4ccc(-c5cccnc5)cc4c23)cc1 [Compound 1107, 2-methyl-2-(4-(8-(pyridin-3-yl)-3H-pyrazolo[3,4-c]quinolin-1-yl)phenyl)propanenitrile]
